Results published in patent US20180071317A1, “USE OF AGENTS THAT ALTER THE PERITUMORAL ENVIRONMENT FOR THE TREATMENT OF CANCER” (SERVICIO ANDALUZ DE SALUD, priority 2011, published 2018).

Experiments:
[1] = tested on: fibroblasts (PHF) co-cultured with tumor cells of human colon adenocarcinoma (SW-403); experiment: Marker expression (IHC) in PHF co-cultured with SW-403 tumor cells; type: cell-based; settings: co-culture with SW-403; SP 1 μM; 48 h
Method: All cultures were maintained 48 hours, following which the same cells were included in paraffin blocks for subsequent analysis of the expression of different markers by immunohistochemistry (see Example 1). The primary antibodies used to perform immunohistochemical assays and their concentration are detailed in Example 2. All experiments were carried out sixfold. Analyzed markers in fibroblast cells (stromal cells) were: TGF-α, TGF-β1, TGF-β2, TGF-β3, SPARC, MMP-3, MMP-7, MMP-9, MMP-11, MMP-13 and MMP-14.

[2] = tested on: fibroblasts (PHF) co-cultured with tumor cells of lung carcinoma (A-427); experiment: Marker expression (IHC) in PHF co-cultured with A-427 tumor cells; type: cell-based, human; settings: co-culture with A-427 lung carcinoma; SP 1 μM; 48 h;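 also: cultures grown in human blood plasma from a healthy donor, value is the percentage of fibroblasts positive for each marker, six replicates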
Method: (§1) All cultures were maintained 48 hours, following which the same cells were included in paraffin blocks for subsequent analysis of the expression of different markers by immunohistochemistry (see Example 1). […] All experiments were carried out sixfold. Analyzed markers in fibroblast cells (stromal cells) were: TGF-α, TGF-β1, TGF-β2, TGF-β3, SPARC, MMP-3, MMP-7, MMP-9, MMP-11, MMP-13 and MMP-14.

[3] = tested on: fibroblasts (PHF) co-cultured with tumor cells of human Edwing sarcoma (MHH-ES-1); experiment: Marker expression (IHC) in PHF co-cultured with MHH-ES-1 tumor cells; type: cell-based; settings: PHF co-cultured with MHH-ES-1 + SP
Method: as §1

[4] = tested on: fibroblasts (PHF) co-cultured with human neuroblastoma tumor cells (KELLY); experiment: Marker expression (IHC) in PHF co-cultured with KELLY tumor cells; type: cell-based; settings: PHF co-cultured with KELLY + SP;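 also: Co-cultures grown on healthy-donor human blood plasma, run in six replicates, value is percentage of fibroblasts positive for each marker, compared with fibroblasts cultured alone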
Method: as §1

[5] = tested on: fibroblasts (PHF) co-cultivated with tumor cell lymphoblastic leukemia B (SDI); experiment: Marker expression (IHC) in PHF co-cultured with SDI tumor cells; type: cell-based, human; settings: PHF co-cultivated with SDI + SP
Method: as §1

`CSCC[C@H](NC(=O)[C@H](CC(C)C)NC(=O)CNC(=O)[C@H](Cc1ccccc1)NC(=O)[C@H](Cc1ccccc1)NC(=O)[C@H](CCC(N)=O)NC(=O)[C@H](CCC(N)=O)NC(=O)[C@@H]1CCCN1C(=O)[C@H](CCCCN)NC(=O)[C@@H]1CCCN1C(=O)[C@@H](N)CCCNC(=N)N)C(N)=O` [SP] was tested, and the “PHF cells expressing MMP-3” value [1] was 46.4 ± 1.9%, the “PHF cells expressing MMP-7” value [1] was 53.1 ± 2.2% and the “PHF cells expressing MMP-9” value [1] was 55.7 ± 1.6%. The “PHF cells expressing MMP-11” value [1] was 26.4 ± 2.6%, the “PHF cells expressing MMP-13” value [1] was 46.5 ± 3.7% and the “PHF cells expressing MMP-14” value [1] was 51.3 ± 3.6%. For the same compound, the “PHF cells expressing SPARC” value [1] was 48 ± 1.6%, the “PHF cells expressing TGF-α” value [1] was 42.5 ± 1% and the “PHF cells expressing TGF-β1” value [1] was 34.3 ± 1.2%. For the same compound, the “PHF cells expressing TGF-β2” value [1] was 42.5 ± 1.5%, the “PHF cells expressing TGF-β3” value [1] was 44 ± 1.9% and the “PHF cells expressing MMP-3” value [2] was 45.5 ± 1.6%. For the same compound, the “PHF cells expressing MMP-7” value [2] was 54.3 ± 2.2%, the “PHF cells expressing MMP-9” value [2] was 55.5 ± 2.4% and the “PHF cells expressing MMP-11” value [2] was 25.5 ± 1.8%. The “PHF cells expressing MMP-13” value [2] was 44.3 ± 2.5%, the “PHF cells expressing MMP-14” value [2] was 45.1 ± 3.5% and the “PHF cells expressing SPARC” value [2] was 47 ± 1.2%. The “PHF cells expressing TGF-α” value [2] was 42.3 ± 2.1%, the “PHF cells expressing TGF-β1” value [2] was 33.4 ± 2.1% and the “PHF cells expressing TGF-β2” value [2] was 40.9 ± 2.1%. The “PHF cells expressing TGF-β3” value [2] was 51.4 ± 1.6%, the “cells expressing MMP-3” value [3] was 43.5 ± 3.7% and the “cells expressing MMP-7” value [3] was 56.7 ± 4.8%. For the same compound, the “cells expressing MMP-9” value [3] was 54.4 ± 2.4%, the “cells expressing MMP-11” value [3] was 28.4 ± 3.8% and the “cells expressing MMP-13” value [3] was 46.6 ± 3.6%. The “cells expressing MMP-14” value [3] was 49.6 ± 4.2%, the “cells expressing SPARC” value [3] was 46.5 ± 3.2% and the “cells expressing TGF-α” value [3] was 36.4 ± 3.1%. For the same compound, the “cells expressing TGF-β1” value [3] was 35.5 ± 2.1%, the “cells expressing TGF-β2” value [3] was 42.6 ± 5.1% and the “cells expressing TGF-β3” value [3] was 42.4 ± 1.6%. The “cells expressing MMP-3” value [4] was 45.4 ± 4.7%, the “cells expressing MMP-7” value [4] was 57.4 ± 3.8% and the “cells expressing MMP-9” value [4] was 51.2 ± 2.4%. For the same compound, the “cells expressing MMP-11” value [4] was 29.4 ± 4.8%, the “cells expressing MMP-13” value [4] was 44.3 ± 4.5% and the “cells expressing MMP-14” value [4] was 51.2 ± 4.2%. The “cells expressing SPARC” value [4] was 46.5 ± 4.2%, the “cells expressing TGF-α” value [4] was 42.4 ± 3.1% and the “cells expressing TGF-β1” value [4] was 36.5 ± 2.1%. For the same compound, the “cells expressing TGF-β2” value [4] was 42.2 ± 2.2%, the “cells expressing TGF-β3” value [4] was 43.4 ± 2.3% and the “cells expressing MMP-3” value [5] was 53.4 ± 5.7%. For the same compound, the “cells expressing MMP-7” value [5] was 59.1 ± 4.8%, the “cells expressing MMP-9” value [5] was 59.3 ± 3.4% and the “cells expressing MMP-11” value [5] was 47.4 ± 4.8%. The “cells expressing MMP-13” value [5] was 49.5 ± 6.5%, the “cells expressing MMP-14” value [5] was 53.9 ± 5.5% and the “cells expressing SPARC” value [5] was 56 ± 6.2%. For the same compound, the “cells expressing TGF-α” value [5] was 41.4 ± 3.1%, the “cells expressing TGF-β1” value [5] was 42.5 ± 4.2% and the “cells expressing TGF-β2” value [5] was 50.5 ± 1.1%. The “cells expressing TGF-β3” value [5] was 51.4 ± 5.5%.
